Common to all, as to experiment: DTP human tumour cell line panel, 48 h
The subject of test [1] is NCI-H23.
Test [2] deals with SF-295.
Test [3] relates to SF-268.
Test [4] concerns A498.
Test [5] has as its system COLO 205.
For test [6], the system named is SF-539.
Test [7] has as its system K562.
The subject of test [8] is KM12.
Test [9] deals with UO-31.
Test [10] relates to NCI-H460.
Test [11] relates to HT-29.
Test [12] deals with SK-MEL-28.
Test [13] has as its system NCI/ADR-RES.
Test [14] has as its system IGROV-1.
Test [15] deals with OVCAR-4.
Test [16] has as its system CAKI-1.
Test [17] deals with ACHN.
The subject of test [18] is M14.
In test [19] the test system is SR.

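48-hour exposure; five concentrations; linearly interpolated endpoints. Abbreviation: GI50, concentration required for 50% inhibition of growth.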 Calls of active or inactive are those of the source. Cut-off read from the data, not from the text of the source: active = GI50 up to about 1.1 µM and inactive = higher. Bounds are passed on as bounds.

One may read the GI50 as the concentration giving 50% growth inhibition.

Turning to `COC1/C=C\C=C(/C)C(=O)NC2=CC(=O)C=C(C2=O)C(OC)C(C)CC(OC)C(OC)C(C)/C=C(/C)C1OC(N)=O` (centres undefined), the GI50 in test [1] is 1.7 µM (inactive); in test [2] it was 20.6 µM (inactive); in [3], 11.5 µM (inactive); in test [4] it was 15.1 µM (inactive); in [5], 0.084 µM (active); in test [6] it was 8.09 µM (inactive). Further, the GI50 in test [7] was 0.15 µM (active); in test [8], 5.7 µM (inactive); in test [9], 16.4 µM (inactive); in [10], 11.5 µM (inactive); in [11], 0.608 µM (active); in [12], 2.59 µM (inactive). Also, the GI50 in test [13] was 5.73 µM (inactive); in test [14], 12.7 µM (inactive); in test [15], 8.26 µM (inactive); in test [16] it was 12.2 µM (inactive).

Turning to `COC(=O)c1nc(-c2ccc3c(n2)C(=O)C(=N)C(OC)=C3O)c(N)c(-c2ccc(OC)c(OC)c2O)c1C`, the GI50 in test [1] is 0.217 µM (active); in [2] it was 0.449 µM (active); in [3], 0.769 µM (active); in test [4], 1.61 µM (inactive); in test [5], 1.84 µM (inactive); in test [6] it was 0.363 µM (active). Besides, the GI50 was 1.93 µM (inactive) in test [7]; 1.68 µM (inactive) in [8]; 0.729 µM (active) in test [9]; < 0.01 µM (active) in [10]; 1.73 µM (inactive) in [11]; 1.33 µM (inactive) in [12]. In addition, the GI50 in test [13] is 1.3 µM (inactive); in test [14], 1.7 µM (inactive); in test [15], 1.66 µM (inactive); in test [16], 0.628 µM (active).

As for `CCCSCC(P(=O)(O)O)P(=O)(O)O.NC1CCCCC1`, the GI50 is > 100 µM (inactive) in test [1]; > 100 µM (inactive) in test [2]; > 100 µM (inactive) in test [3]; 8.59 µM (inactive) in test [4]; > 100 µM (inactive) in [5]; > 100 µM (inactive) in [6]. The GI50 is > 100 µM (inactive) in test [7]; 7.46 µM (inactive) in test [8]; > 100 µM (inactive) in [9]; > 100 µM (inactive) in test [10]; > 100 µM (inactive) in test [11]; > 100 µM (inactive) in test [12]. The GI50 in test [13], in test [14], in [15] and in test [16] was > 100 µM (inactive) in each case.

On to `CSCC[C@@H]1C(=O)N(C)[C@H](C(C)(C)C)N1C(=O)c1ccccc1`, for which the GI50 in test [1], in [2], in test [3], in test [4], in test [5] and in test [6] was > 100 µM (inactive) throughout. Moreover, the GI50 in test [7] was > 100 µM (inactive); in [8] it was > 100 µM (inactive); in [9], > 100 µM (inactive); in test [10], > 100 µM (inactive); in test [11] it was > 81.5 µM (inactive); in test [12], > 100 µM (inactive). In addition, the GI50 in [13], in test [14] and in [15] was > 100 µM (inactive) each time.

As for `CC(C)c1cccc(C(C)C)c1NC(=O)C(=O)C1CCC2=C(Sc3ccccc3N2)C1=O` (centres undefined), the GI50 was 31.6 µM (inactive) in test [1]; 80.5 µM (inactive) in [2]; > 100 µM (inactive) in test [3]; > 100 µM (inactive) in [4]; 24.4 µM (inactive) in test [5]; 31.3 µM (inactive) in test [6]. The GI50 is 34.9 µM (inactive) in [7]; > 100 µM (inactive) in test [8]; > 100 µM (inactive) in test [17]; > 100 µM (inactive) in test [9]; > 100 µM (inactive) in [10]; 58.5 µM (inactive) in [11]. Also, the GI50 was > 100 µM (inactive) in [12]; > 100 µM (inactive) in test [14]; 95.9 µM (inactive) in [15]; 64.4 µM (inactive) in test [16]; > 100 µM (inactive) in test [18]; > 100 µM (inactive) in [19].

As to `CCCNC(=O)Nc1c([N+](=O)[O-])cc(C(F)(F)F)cc1[N+](=O)[O-]`, the GI50 in test [1] is 43 µM (inactive); in test [2], 84.9 µM (inactive); in test [3] it was > 100 µM (inactive); in [4], > 100 µM (inactive); in test [5] it was > 10 µM (inactive); in [6], 71.3 µM (inactive). The GI50 in [7] is 47.1 µM (inactive); in test [8], 55.5 µM (inactive); in test [17], 89.9 µM (inactive); in test [9] it was > 100 µM (inactive); in test [10], 42.1 µM (inactive); in [11] it was 37.4 µM (inactive). Further, the GI50 in test [12] is > 100 µM (inactive); in test [14], > 100 µM (inactive); in test [15], 20.3 µM (inactive); in test [16], > 100 µM (inactive); in test [18] it was 86.3 µM (inactive); in test [19], 92.9 µM (inactive).

`COc1cccc2c1C(=O)c1c(O)c3c(c(O)c1C2=O)C[C@@](O)(C(C)=O)CC3S(=O)(=O)O` (some centres undefined): the GI50 in [1], in test [2], in test [3], in test [4], in test [5] and in test [6] was > 100 µM (inactive) each time. Moreover, the GI50 in test [7], in test [8], in test [17], in test [9], in test [10] and in test [11] was > 100 µM (inactive) in each case. Also, the GI50 was > 100 µM (inactive) in [12]; > 100 µM (inactive) in test [14]; > 100 µM (inactive) in [15]; > 100 µM (inactive) in [16]; > 100 µM (inactive) in test [18]; > 84.1 µM (inactive) in test [19].

Consider `NC1=NN(c2ccccc2)C(=O)C1C(=O)C(=O)Nc1ccc(Cl)cc1` (centres undefined), for which the GI50 in test [1], in [2], in [3], in test [4], in test [5] and in test [6] was > 100 µM (inactive) each time. Moreover, the GI50 in [7], in [8], in [17], in test [9], in test [10] and in test [11] was > 100 µM (inactive) throughout. In addition, the GI50 in test [12], in test [14], in test [15], in [16], in test [18] and in test [19] was > 100 µM (inactive) throughout.

As to `N#CC(Nc1cccc(C(F)(F)F)c1)c1ccccc1C(F)(F)F` (centres undefined), the GI50 is 13.9 µM (inactive) in test [1]; 10.5 µM (inactive) in [2]; 17.2 µM (inactive) in [3]; 19.1 µM (inactive) in test [4]; 3.26 µM (inactive) in test [5]; 18.4 µM (inactive) in test [6]. Moreover, the GI50 is 14.5 µM (inactive) in test [7]; 7.52 µM (inactive) in [8]; 14.5 µM (inactive) in test [17]; 17.9 µM (inactive) in test [9]; 15.5 µM (inactive) in [10]; 13.7 µM (inactive) in test [11]. Further, the GI50 is 17.9 µM (inactive) in test [12]; 22.7 µM (inactive) in test [14]; 5.58 µM (inactive) in [15]; 2.73 µM (inactive) in [16]; 7.29 µM (inactive) in test [18]; 4.82 µM (inactive) in [19].

Consider `NCCSc1nc(N)c2ncn(C3OC(CO)C(O)C3O)c2n1` (centres undefined), for which the GI50 in test [1], in test [2], in test [3], in test [4], in [5] and in [6] was > 100 µM (inactive) in each case. The GI50 in test [7], in [8], in test [17], in test [9], in [10] and in [11] was > 100 µM (inactive) throughout. In addition, the GI50 in test [12], in test [14], in test [15], in test [16], in test [18] and in test [19] was > 100 µM (inactive) throughout.

Turning to `ClC1CCC2OOC1O2` (centres undefined), the GI50 in [1], in [2], in test [3], in test [4], in test [5] and in [6] was > 100 µM (inactive) throughout. The GI50 in test [7] is > 100 µM (inactive); in test [8], > 100 µM (inactive); in [17], > 100 µM (inactive); in test [9] it was > 100 µM (inactive); in test [10], > 100 µM (inactive); in test [11], 89.5 µM (inactive). Moreover, the GI50 in test [12], in test [14], in [15], in test [16], in test [18] and in test [19] was > 100 µM (inactive) each time.
